Results published in article PMC5775280, “Functional Characterization and Signaling Systems of Corazonin and Red Pigment Concentrating Hormone in the Green Shore Crab, Carcinus maenas” (Frontiers in Neuroscience, 2018).
Peptide text beside a SMILES is read from it.

Tests used:
[1] = Hemolymph triglyceride levels after peptide injection; format: in vivo, Carcinus maenas; settings: mean ± 1 SEM, n = 6, SEM
Experimental: Adipokinetic and glucose mobilizing activity of […] and ACP were performed by measurement of triglycerides in hemolymph ([…] et al., [2014]) and glucose (Chung and Webster, [1996]). Hemolymph samples (ca. 100 μl) were taken from crabs injected with each peptide at 0 and 90 min, and subsequently assayed.

[2] = molecular target: T1, C. maenas RPCHR (red pigment concentrating hormone receptor) (Carcinus maenas, UniProt A0A2L0WQF2); test: Aequorin luminescence Ca2+ mobilization in CHO-K1-Aeq cells transiently expressing RPCHR; format: cell-based; settings: CHO-K1-Aeq cells (without Gα16) transiently expressing RPCHR; luminescence response normalized to total Ca2+ response; dose response curves, means of n = 4
T1 sequence (A0A2L0WQF2 1-529): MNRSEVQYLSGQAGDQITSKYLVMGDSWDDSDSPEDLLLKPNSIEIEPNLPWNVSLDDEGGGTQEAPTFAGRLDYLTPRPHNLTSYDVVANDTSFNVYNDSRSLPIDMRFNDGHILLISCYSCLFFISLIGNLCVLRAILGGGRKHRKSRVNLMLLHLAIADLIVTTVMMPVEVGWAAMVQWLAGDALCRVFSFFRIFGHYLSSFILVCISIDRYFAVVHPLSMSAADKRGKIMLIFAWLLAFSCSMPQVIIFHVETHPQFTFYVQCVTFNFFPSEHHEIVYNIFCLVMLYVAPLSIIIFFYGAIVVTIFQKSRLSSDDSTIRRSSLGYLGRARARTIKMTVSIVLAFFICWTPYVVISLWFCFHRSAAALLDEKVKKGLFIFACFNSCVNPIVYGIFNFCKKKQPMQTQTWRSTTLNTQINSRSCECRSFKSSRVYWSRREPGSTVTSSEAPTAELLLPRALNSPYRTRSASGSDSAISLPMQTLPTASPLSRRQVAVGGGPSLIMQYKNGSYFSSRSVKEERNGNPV
Experimental: Chinese hamster ovary (CHO-K1) cells containing stably expressed apoaequorin (Perkin Elmer, Boston, MA) and either Gα16 or Gq subunit (control cells) were cultured in Dulbecco's Modified Eagle Medium (DMEM) F-12 Nutrient Mixture GlutaMax (Gibco®) supplemented with 10% fetal bovine serum (Gibco®). Cells were maintained in vented T75 flasks at 37°C in 5% CO2.
Cells grown in a monolayer to approximately 60% confluency in T75 flasks were transfected with pcDNA3.1 constructs using FugeneHD (Promega) according to the manufacturer's recommendations. Briefly, transfection medium was prepared by combining 800 μl Opti-MEM® (Gibco) with 10 μg vector and 30 μl Fugene HD in a 2 ml polystyrene tube and incubated for 10 min at room temperature. The transfection reagent was added to 5 ml of fresh culture media and the cells incubated overnight at 37°C in 5% CO2. After 24 h, an additional 10 ml of culture media were added to the flasks and the cells returned to 37°C at 5% CO2 for a further overnight incubation.
On the day of the assay, cells were detached from the culture flask by incubating for 12 min in 5 ml 0.2% EDTA in PBS. The cells were washed with 10 ml DMEM clear DMEM/F-12 containing L-glutamine, 15 mM HEPES and moved to 50 ml centrifuge tubes. Cells were centrifuged for 5 min at 260 g and resuspended to a concentration of 5 × 10^6 cells ml^−1 in 0.2 μm filtered BSA medium (DMEM/F-12 containing L-glutamine, 15 mM HEPES + 0.1% BSA). Coelenterazine h (Invitrogen, Paisley, UK) was added to a concentration of 5 μM and the cells incubated for 4 h in the dark at room temperature whilst gently rocking. The cells were diluted 10-fold and incubated for a further 60 min before use in the assay. Synthetic peptides (GeneCust, Dudelange, Luxembourg) were reconstituted in 30% acetonitrile, dried in small aliquots by vacuum centrifugation and subsequently redissolved in BSA medium. Fifty microliter aliquots were then dispensed into quadruplicate wells of a white 96-well plate (OptiPlate, PerkinElmer). Cell suspensions were gently stirred and injected in 50 μl aliquots into each well using a Mithras LB 940 microplate reader (Berthold Technologies, Bad-Wildbad, Germany) and light emission (Ca^2+ response) recorded for 30 s. Cells were then lysed by injection of 0.3% Triton-X in BSA medium and light emission recorded for a further 10 s to measure total Ca^2+ response. BSA medium was used for blank measurements (6 replicate wells per plate) and mock transfection with empty vectors carried out for negative controls. Data was analyzed using MikroWin v5.18 (Mikrotek Laborsysteme GmbH) and SigmaPlot v.13 (Systat Software, Inc.). Receptor response was normalized against total Ca^2+ response.

SMILES: CC(C)C[C@H](NC(=O)[C@@H]1CCC(=O)N1)C(=O)N[C@@H](CC(N)=O)C(=O)N[C@@H](Cc1ccccc1)C(=O)N[C@@H](CO)C(=O)N1CCC[C@H]1C(=O)NCC(=O)N[C@@H](Cc1c[nH]c2ccccc12)C(N)=O [RPCH] (HELM PEPTIDE1{[Glp].L.N.F.S.P.G.W.[am]}$$$$V2.0)
- hemolymph triglyceride levels, 0 min ([1]; injection 100 pmol per crab): 0.14 ± 0.14 µg/µL
- hemolymph triglyceride levels, 90 min ([1]; injection 100 pmol per crab, no significant change over 90 min): 0.86 ± 0.4 µg/µL
- hemolymph triglyceride levels, 0 min ([1]; repeat experiment, injection 10 pmol): 0.49 ± 0.27 µg/µL
- hemolymph triglyceride levels, 90 min ([1]; repeat experiment, injection 10 pmol, no significant change): 0.20 ± 0.28 µg/µL
- hemolymph triglyceride levels, 0 min ([1]; repeat experiment, injection 100 pmol): 1.65 ± 0.59 µg/µL
- hemolymph triglyceride levels, 90 min ([1]; repeat experiment, injection 100 pmol, no significant change): 0.78 ± 0.44 µg/µL
- EC50 [2]: 0.02 nM
